Target: T1, human TLR7 (Homo sapiens, UniProt Q9NYK1)
T1 construct: host or cells: HEK-Blue TLR7 cells (engineered human embryonic kidney cells)
T1 sequence (Q9NYK1 27-1049): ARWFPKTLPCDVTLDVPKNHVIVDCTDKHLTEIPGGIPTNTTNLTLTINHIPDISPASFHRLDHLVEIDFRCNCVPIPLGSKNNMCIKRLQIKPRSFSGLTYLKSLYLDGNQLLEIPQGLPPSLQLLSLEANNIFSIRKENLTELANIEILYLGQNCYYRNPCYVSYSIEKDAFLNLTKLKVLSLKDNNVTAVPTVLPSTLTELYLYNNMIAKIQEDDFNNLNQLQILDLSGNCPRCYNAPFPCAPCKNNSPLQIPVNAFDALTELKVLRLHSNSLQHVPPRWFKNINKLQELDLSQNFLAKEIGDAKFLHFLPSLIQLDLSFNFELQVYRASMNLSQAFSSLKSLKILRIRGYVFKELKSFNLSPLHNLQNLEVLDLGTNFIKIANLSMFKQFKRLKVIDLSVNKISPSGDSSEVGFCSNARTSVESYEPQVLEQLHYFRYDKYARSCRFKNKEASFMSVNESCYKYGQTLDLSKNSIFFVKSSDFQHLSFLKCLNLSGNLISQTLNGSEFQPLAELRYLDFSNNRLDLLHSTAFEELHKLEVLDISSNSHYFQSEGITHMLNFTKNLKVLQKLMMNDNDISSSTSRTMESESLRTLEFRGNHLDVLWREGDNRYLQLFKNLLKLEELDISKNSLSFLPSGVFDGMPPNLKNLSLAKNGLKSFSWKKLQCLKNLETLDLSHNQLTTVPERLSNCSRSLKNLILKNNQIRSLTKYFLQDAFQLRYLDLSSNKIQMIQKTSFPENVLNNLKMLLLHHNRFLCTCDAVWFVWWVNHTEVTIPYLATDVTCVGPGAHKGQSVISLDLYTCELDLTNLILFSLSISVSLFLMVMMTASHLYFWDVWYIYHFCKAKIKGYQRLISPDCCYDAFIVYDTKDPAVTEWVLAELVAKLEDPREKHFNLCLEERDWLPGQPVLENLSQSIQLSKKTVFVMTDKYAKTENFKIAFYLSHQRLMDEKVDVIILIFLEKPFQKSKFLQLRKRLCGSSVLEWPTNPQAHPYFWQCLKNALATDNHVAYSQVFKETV
Test: Human TLR7 agonist activity assay (HEK-Blue TLR7 SEAP reporter)
Format: cell-based
Conditions: HEK-Blue TLR7 cells, 18 h treatment, in some instances average of plural assays, read-out: hTLR7 EC50
Experimental: Human TLR7 Agonist Activity Assay
HEK-Blue™ TLR7 cells were added to each well of a 384-well tissue-culture plate (15,000 cells per well) and incubated 16-18 h at 37° C., 5% CO2. Compounds (100 nl) were dispensed into wells containing the HEK-Blue™ TLR cells and the treated cells were incubated at 37° C., 5% CO2. After 18 h treatment ten microliters of freshly-prepared Quanti-Blue™ reagent (Invivogen) was added to each well, incubated for 30 min (37° C., 5% CO2) and SEAP levels measured using an Envision plate reader (OD=620 nm).

Structure (SMILES) | EC50 [nM]
CCCCNc1nc(N)nc2cnn(Cc3ccc(CN4CCNCC4)cn3)c12 [Compound 850] | 1620
CCC[C@@H](CCO)Nc1nc(N)nc2cnn(Cc3ccc(CN4CC(OC)C4)cc3)c12 [Compound 877] | 190
CCCCNc1nc(N)nc2cnn(Cc3ccc(CN4CC5CNCC5C4)cc3OC)c12 (stereo not shown) [Compound 812] | 102
CCC[C@@H](CCO)Nc1nc(N)nc2cnn(Cc3ccc(CN4CC5CNCC5C4)cc3OC)c12 (stereo partly shown) [Compound 834] | 29.9
CCC[C@@H](CCO)Nc1nc(N)nc2cnn(Cc3ccc(CN4C[C@@H]5C[C@H]4CN5)cc3OC)c12 [Compound 843] | 55.9
CCCCNc1nc(N)nc2cnn(Cc3ccc(Oc4ccc(CN5CCN(CCO)CC5)cc4)cc3OC)c12 [Compound 810] | 245
CCC[C@H](CCO)Nc1nc(N)nc2cnn(Cc3ccc(CNC4CCC4)cc3OC)c12 [Compound 872] | 32.7
CCCCNc1nc(N)nc2cnn(Cc3ccc(CNC4CCC4)cc3F)c12 [Compound 853] | 420
CCC[C@@H](CCO)Nc1nc(N)nc2cnn(Cc3ccc(CNC4CC(C(C)(C)C)C4)cc3OC)c12 (stereo partly shown) [Compound 866] | 19.5
CCC[C@@H](CCO)Nc1nc(N)nc2cnn(Cc3ccc(CN4CCc5cnccc5C4)cc3OC)c12 [Compound 844] | 4.6
CCC[C@@H](CCNC(C)=O)Nc1nc(N)nc2cnn(Cc3ccc(CNC4(C)CCOCC4)cc3OC)c12 [Compound 847] | 187
CCC[C@@H](CCO)Nc1nc(N)nc2cnn(Cc3ccc(CN4CCCNCC4)cc3OC)c12 [Compound 838] | 39.6
CCCCNc1nc(N)nc2cnn(Cc3ccc(CN4CCN(CCO)CC4)cn3)c12 [Compound 849] | 2030
CCC[C@@H](CCO)Nc1nc(N)nc2cnn(Cc3ccc(CNC4CCC4)cc3)c12 [Compound 875] | 58
COCCNc1nc(N)nc2cnn(Cc3ccc(CNC4CCC4)cc3OC)c12 [Compound 865] | 959
CCC[C@@H](CCO)Nc1nc(N)nc2cnn(Cc3ccc(CO)cc3OC)c12 [Compound 817] | 27.8
CCC[C@@H](CCO)Nc1nc(N)nc2cnn(Cc3ccc(CNC4(C)CCOCC4)cc3OC)c12 [Compound 848] | 33
CCC[C@@H](CCO)Nc1nc(N)nc2cnn(Cc3ccc(CN4CC(OC)C4)cc3OC)c12 [Compound 861] | 1.2
CCC[C@@H](CCO)Nc1nc(N)nc2cnn(Cc3ccc(CO)cc3)c12 [Compound 874] | 2050
CCCCNc1nc(N)nc2cnn(Cc3ccc(Oc4ccc(CNC5CCOCC5)cc4)cc3OC)c12 [Compound 858] | 10.8
CCCCNc1nc(N)nc2cnn(Cc3ncc(CNC4CCC4)cc3OC)c12 [Compound 855] | 640

Structure (SMILES) | EC50 [nM]
CCCCNc1nc(N)nc2cnn(Cc3ccc(CN4CC5CC4CN5)cn3)c12 (stereo not shown) [Compound 852] | 3170
CCCCNc1nc(N)nc2cnn(Cc3ccc(Oc4ccc(CNC5CCC5)cc4)cc3OC)c12 [Compound 860] | 19.5
CCC[C@@H](CCO)Nc1nc(N)nc2cnn(Cc3ccc(CN4CC(OC(C)C)C4)cc3OC)c12 [Compound 868] | 1.4
CCC[C@@H](CCO)Nc1nc(N)nc2cnn(Cc3ccc(CN4CC(O)C4)cc3)c12 [Compound 878] | 1110
CCC[C@@H](CCO)Nc1nc(N)nc2cnn(Cc3ccc(CN4CCN(CCO)CC4)cc3)c12 [Compound 879] | 370
CCCCNc1nc(N)nc2cnn(Cc3ccc(CNC4CCC4)cc3OC)c12 [Compound 800] | 58.3
CCC[C@@H](CCO)Nc1nc(N)nc2cnn(Cc3ccc(CNCc4ccncc4)cc3OC)c12 [Compound 837] | 2.4
CCCCNc1nc(N)nc2cnn(Cc3ccc(CN4CCN(CCO)CC4)cc3F)c12 [Compound 870] | 1800
CCC[C@@H](CCO)Nc1nc(N)nc2cnn(Cc3ccc(CN4CC(CCO)C4)cc3OC)c12 [Compound 842] | 28.3
CCC[C@@H](CCO)Nc1nc(N)nc2cnn(Cc3ccc(CN4CC(O)C4)cc3OC)c12 [Compound 863] | 9.5
CCCCNc1nc(N)nc2cnn(Cc3ccc(Oc4ccc(CNCC(C)(C)O)cc4)cc3OC)c12 [Compound 857] | 11.5
CCC[C@@H](CCO)Nc1nc(N)nc2cnn(Cc3ccc(CN4CC5(CNC5)C4)cc3OC)c12 [Compound 835] | 89
CCCCNc1nc(N)nc2cnn(Cc3ccc(Oc4ccc(CO)cc4)cc3OC)c12 [Compound 803] | 569
CCCCNc1nc(N)nc2cnn(Cc3ccc(Oc4ccc(CN5CCN(C)CC5)cc4)cc3OC)c12 [Compound 809] | 74.5
CCC[C@@H](CCO)Nc1nc(N)nc2cnn(Cc3ccc(Cn4ccnc4)cc3OC)c12 [Compound 836] | 15.3
CCC[C@@H](CCO)Nc1nc(N)nc2cnn(Cc3ccc(CNC4CCC4)cc3OC)c12 [Compound 841] | 9.7
CCCCNc1nc(N)nc2cnn(Cc3ccc(CN4CCCC4)cn3)c12 [Compound 851] | 1770
CCC[C@@H](CCO)Nc1nc(N)nc2cnn(Cc3ccc(CN4CC5CC4CN5)cc3OC)c12 (stereo partly shown) [Compound 839] | 242
CCCCNc1nc(N)nc2cnn(Cc3ncc(CNC4CCOCC4)cc3OC)c12 [Compound 856] | 1160
CCCCNc1nc(N)nc2cnn(Cc3ccc(Oc4ccc(C(C)(C)O)cc4)nc3)c12 [Compound 829] | 1340
CCC[C@@H](CCO)Nc1nc(N)nc2cnn(Cc3ccc(CN4CC(F)(F)C4)cc3OC)c12 [Compound 862] | 11

The remaining lines, values ahead:

EC50 [nM] | Structure (SMILES)
33.2 | CCCCNc1nc(N)nc2cnn(Cc3ccc(CN4CC(CCO)C4)cc3OC)c12 [Compound 815]
31.1 | CCCCNc1nc(N)nc2cnn(Cc3ccc(CN4CCCC4)cc3OC)c12 [Compound 833]
43.5 | CCCCNc1nc(N)nc2cnn(Cc3ccc(CN(C)CCCO)cc3OC)c12 [Compound 825]
43.8 | CCCCNc1nc(N)nc2cnn(Cc3ccc(Oc4ccc(CNCCO)cc4)cc3OC)c12 [Compound 802]
21.5 | CCCCNc1nc(N)nc2cnn(Cc3ccc(CN4CCN(CCO)CC4)cc3OC)c12 [Compound 823]
47.6 | CCCCNc1nc(N)nc2cnn(Cc3ccc(CN4CCN(C)CC4)cc3OC)c12 [Compound 827]
2550 | CCCCNc1nc(N)nc2cnn(Cc3ccc(CNCC4CC(O)C4)cc3OC)c12 (stereo not shown) [Compound 807]
41.4 | CCCCNc1nc(N)nc2cnn(Cc3ccc(CNC4CCC(O)CC4)cc3OC)c12 (stereo not shown) [Compound 806]
98.7 | CCCCNc1nc(N)nc2cnn(Cc3ccc(CNC(C)(C)C)cc3OC)c12 [Compound 828]
21.2 | CCCCNc1nc(N)nc2cnn(Cc3ccc(CN4CCCNCC4)cc3OC)c12 [Compound 845]
104 | CCCCNCc1ccc(Cn2ncc3nc(N)nc(NCCCC)c32)c(OC)c1 [Compound 831]
121 | CCCCNc1nc(N)nc2cnn(Cc3ccc(CNC4(CO)CCCC4)cc3OC)c12 [Compound 820]
138 | CCCCNc1nc(N)nc2cnn(Cc3ccc(CNC4CC(O)C4)cc3OC)c12 (stereo not shown) [Compound 811]
33.8 | CCCCNc1nc(N)nc2cnn(Cc3ccc(CN4CCCNCC4)cc3OC)c12 [Compound 821]
157 | CCCCNc1nc(N)nc2cnn(Cc3ccc(Oc4ccc(CNCCOC)cc4)cc3OC)c12 [Compound 808]
244 | CCCCNc1nc(N)nc2cnn(Cc3ccc(CNc4ccc(CCO)cc4)cc3OC)c12 [Compound 822]
216 | CCOCCNc1nc(N)nc2cnn(Cc3ccc(CNC4CCC4)cc3OC)c12 [Compound 864]
258 | CCCCNc1nc(N)nc2cnn(Cc3ccc(CO)cc3OC)c12 [Compound 818]
92.5 | CCCCNc1nc(N)nc2cnn(Cc3ccc(CNCCO)cc3OC)c12 [Compound 816]
253 | CCCCNc1nc(N)nc2cnn(Cc3ccc(CC#N)cc3OC)c12 [Compound 873]
41.4 | CCCCNc1nc(N)nc2cnn(Cc3ccc(CNCC(C)(C)O)cc3OC)c12 [Compound 805]
182 | CCCCNc1nc(N)nc2cnn(Cc3ccc(CNCCOC)cc3OC)c12 [Compound 826]
